In brackets after ≈: the same amount, converted by molar mass. Like-named read-outs stand apart in the source and are kept apart here.
Tests used:
Plasmodium falciparum = assay: In vitro anti-malarial activity against Plasmodium falciparum, IC50 assay / [3H]-hypoxanthine incorporation assay; assay type: cell-based; settings: Erythrocyte, parasitized red blood cells, 48 hours
Protocol: In Vitro Anti-malarial Activity Against Plasmodium falciparum
IC50 Assay/[^3H]-Hypoxanthine Assay
Plasmodium falciparum strains.
The culture medium comprised RPMI 1640 with 25 mM HEPES, sodium bicarbonate and glutamine (GIBCO™ cat. ref.: 52400), supplemented with 10% of pooled human sera AB (Irvine Scientific, cat. ref.: 5009) and HT supplement (0.15 mM hypoxanthine and 24 μM thymidine), (GIBCO™ cat. ref.: 41065). Human sera were decomplemented 30 min. at 56° C., aliquoted and stored frozen at −20° C. until use in this culture medium.
Red blood cells O+ stock suspensions were prepared from whole blood bags coming from incomplete blood donation, provided by the Spanish Red Cross (<25 days after sampling). This “whole blood” was aliquoted and stored at 4° C.
To prepare red blood cells for the assay, the whole blood was centrifuged and washed 3 times with RPMI without serum. The upper phase, containing white blood cells was removed. The washed red blood cells were kept as a 50% suspension in complete medium. The prepared cells were stored at 4° C. and were employed in the assay at any time up to 4 days after preparation.
Test compounds were dissolved at 2 mg/ml in 100% DMSO on the day of the assay. If necessary, complete dissolution was achieved by gentle heating (the mixture was heated at a temperature <37° C.) and sonication (sonication bath).
For IC50 determinations, 10 serial 2-fold dilutions were prepared in complete medium in the presence of a constant amount of DMSO.
Plasmodium falciparum strains were maintained in complete medium at an hematocrit of 5% in continuous culture using a method adapted from Trager and Jensen (1, 2).
The parasitemia was calculated by counting the percentage of parasitized erythrocytes by optical microscopy. Thin films of blood were made every day from each culture flask, fixed with methanol and stained for 10 min. in Giemsa (Merck, cat ref.: 1.09204) at 10% in buffered water pH 7.2. The glass slides were observed and counted with an optical microscope (Nikon, Eclipse E200) equipped with a 100× immersion oil objective.
The culture was maintained at an hematocrit of 5%, with a daily change of medium and was diluted when parasitemia had reached about 5%.
[^3H] Hypoxanthine incorporation assay was conducted using a method adapted from Desjardins et al. (3). The assays were performed in 96 wells flat bottom microplates.
1. Serial dilutions of the test compounds (50 μl of a 5× solution/well) were deposited in duplicate. Compounds of the invention were tested in this assay. Chloroquine and Atovaquone were used as control compounds for each assay.
3. [^3H]-Hypoxanthine (Amersham Biosciences, cat. ref.: TRK74) was added extemporaneously to the inoculum suspension at a concentration of 1 μCi/ml (equating to […]). 200 μl of the resulting suspension was distributed into each well (other than the control well H12 described below) leading to a final volume of 250 μl per well, at 2% of hematocrit and 0.5% of parasitemia/well.
4. In each plate, 2 columns were reserved for control wells: • Column 11: Positive control wells: PRBCs with 0.2% DMSO—(i) to determine DMSO solvent effect on parasite growth (at a final concentration of 0.2%) and (ii) to compare with cultures treated with test compounds. • Column 12 (comprising wells A12-H12): • A12-D12—Background value wells: Uninfected RBCs—blank control to obtain the background reading from RBCs without parasites. • E12-G12—Solvent effect wells: PRBCs without DMSO—to determine DMSO solvent effect on PRBCs by comparing these wells with column 11 wells. • H12-Non-radioactive well: PRBCs with cold hypoxanthine—(i) to carry out a thin blood film to determine parasitemia value after incubation by microscopy and (ii) to ensure that the parasites have grown properly during the assay. (200 μl of inoculum suspension was prepared as described above (Items 2 and 3) but with non-tritiated hypoxanthine instead of [3H]-hypoxanthine, then added to this well to a final volume of 250 μl). […]

[1] = Compound solubility determination (gross and equilibrium solubility; FaSSIF, FeSSIF, pH 7.4 PBS, pH 1.0 0.1N HCl, pH 4.5 sodium citrate); assay type: physicochemical; settings: thermodynamic from solid
Protocol: Compound Solubility Determination
An amount of 3 mg solid compound with LC-MS purity ≧95% was required. This amount was split between 3 different glass vials (1.8 ml volume each), placing 1 mg compound into each one.
Organic solvents of HPLC grade were used. Ultra pure water (Milli-Q grade) was used. Buffers were prepared with ultra pure water and filtered using 0.45μ cameo filters. The compositions of each solvent employed in this assay are described below (part III).
2. Determination of Equilibrium Solubility (Assuming Chemical Stability in the Desired Solvent is not a Problem).
For each of the three vial samples prepared as described above, in which the amount of compound was totally dissolved, the following procedure was subsequently carried out: • a) A small amount (approx. 0.1 mg) of additional solid compound was added to the vial to maintain an excess of the compound in the mixture in the form of undissolved solid. • b) The samples were magnetically stirred for 24 hr. If required, additional solid compound (0.1 mg) was added to maintain excess of it and then the samples were stirred again. • c) Then the samples were filtered (Millipore Milex filters nylon 0.2 um) and three aliquots were taken (one from each of the three vials) and analysed by LC-MS. • d) The pH of the final solution in each sample was measured with a pH-meter (WTW pH330i and a pH-electrode Sentix 41).
3. LC-MS Assay for Analytical Quantification
All filtered aliquots were analysed by LC-MS. The analysis was carried out with a Luna 5 μC18 (2) column 4.6×150 mm, using a HP1100 HPLC instrument interfaced with a Waters ZMD-2000 MS spectrometer. The concentration of the final sample as prepared above was calculated from that of a reference calibration curve obtained from serial dilutions of a 2 mM solution of the compound under investigation in DMSO (Aldrich cat. ref.: 27685-5) stock solution.
The analysis of all LC-MS data was performed with MassLynx 3.4 software. Statistical and graphic analysis of data was performed using Microsoft Excel. The concentration (uM) and solubility (ug/ml) for each compound was calculated using the peak areas from the sample and those from the calibration curve.
A) FaSSIF is a solvent which simulates the Fasted State of the Intestinal Fluid. (FaSSIF: Fasted State Simulated Intestinal Fluid).
B) FeSSIF is a solvent which simulates the Fed State of the Intestinal Fluid. (FeSSIF: Fed State Simulated Intestinal Fluid).
C) Solubility at pH 7.4 was determined in phosphate buffered saline (PBS) (Fluka cat. ref: 79383)
D) Solubility at pH 1.0 was determined in 0.1N HCl solution (Scharlau AL0744010C)
E) Solubility at pH 4.5 was determined in sodium citrate 0.5M solution. (Aldrich 25, 127-5)

[2] = 0.1N HCl solution, simulated gastric fluid, pH 1 (HCl), read-out: Solubility at pH 1 (HCl)
[3] = FaSSIF (fasted state simulated intestinal fluid), fassif, read-out: Solubility in FaSSIF
[4] = phosphate buffered saline (PBS), aqueous buffer, pH 7.4 (PBS), read-out: Solubility at pH 7.4 (PBS)
[5] = sodium citrate 0.5M solution, aqueous buffer, pH 4.5 (Na citrate), read-out: Solubility at pH 4.5 (Na citrate)

## Cc1[nH]c(C)c(-c2ccc(OCc3ccc(C(F)(F)F)cc3)nc2)c(=O)c1Cl [Example 10, 5-Chloro-2,6-dimethyl-6′-{[4-(trifluoromethyl)benzyl]oxy}-3,3′-bipyridin-4(1H)-one]
Plasmodium falciparum
  IC50: < 0.125 µg/mL
[1]; aqueous buffer, pH 4.5 (Na citrate), read-out: Solubility at pH 4.5 (Na citrate)
  solubility at 24 h: < 1 µg/mL
[1]; aqueous buffer, pH 7.4 (PBS), read-out: Solubility at pH 7.4 (PBS)
  solubility at 24 h: < 1 µg/mL
[1]; fassif, read-out: Solubility in FaSSIF
  solubility at 24 h: < 1 µg/mL
[1]; simulated gastric fluid, pH 1 (HCl), read-out: Solubility at pH 1 (HCl)
  solubility at 24 h: 5 to 10 µg/mL (≈ 12.2 to 24.5 µM)

## Cc1[nH]c(C)c(-c2ccc(-c3ccc(C(F)(F)F)cc3)nc2)c(=O)c1Br [Example 16, 5-Bromo-2,6-dimethyl-6′-{4-[trifluoromethyl]phenyl}-3,3′-bipyridin-4(1H)-one]
Plasmodium falciparum
  IC50: < 0.125 µg/mL
[1]; [2]
  solubility at 24 h: 10 to 50 µg/mL (≈ 23.6 to 118 µM)
[1]; [3]
  solubility at 24 h: < 1 µg/mL
[1]; [4]
  solubility at 24 h: < 1 µg/mL
[1]; [5]
  solubility at 24 h: < 1 µg/mL

## Cc1[nH]c(C)c(-c2ccc(-c3cccc(C(F)(F)F)c3)nc2)c(=O)c1Br [Example 17, 5-Bromo-2,6-dimethyl-6′-{3-[trifluoromethyl]phenyl}-3,3′-bipyridin-4(1H)-one]
Plasmodium falciparum
  IC50: < 0.125 µg/mL
[1]; [2]
  solubility at 24 h: ≥ 50 µg/mL
[1]; [3]
  solubility at 24 h: 1 to 5 µg/mL (≈ 2.36 to 11.8 µM)
[1]; [4]
  solubility at 24 h: < 1 µg/mL
[1]; [5]
  solubility at 24 h: < 1 µg/mL

## Cc1[nH]c(C)c(-c2ccc(-c3ccccc3C(F)(F)F)nc2)c(=O)c1Br [Example 18, 5-Bromo-2,6-dimethyl-6′-{2-[trifluoromethyl]phenyl}-3,3′-bipyridin-4(1H)-one]
Plasmodium falciparum
  IC50: < 0.125 µg/mL
[1]; [2]
  solubility at 24 h: ≥ 50 µg/mL
[1]; [3]
  solubility at 24 h: 10 to 50 µg/mL (≈ 23.6 to 118 µM)
[1]; [4]
  solubility at 24 h: 10 to 50 µg/mL (≈ 23.6 to 118 µM)
[1]; [5]
  solubility at 24 h: 10 to 50 µg/mL (≈ 23.6 to 118 µM)

## Cc1[nH]c(C)c(-c2ccc(-c3ccc(Cl)cc3)nc2)c(=O)c1Br [Example 19, 5-Bromo-6′-(4-chlorophenyl)-2,6-dimethyl-3,3′-bipyridin-4(1H)-one]
Plasmodium falciparum
  IC50: < 0.125 µg/mL
[1]; [2]
  solubility at 24 h: 10 to 50 µg/mL (≈ 25.7 to 128 µM)
[1]; [3]
  solubility at 24 h: 1 to 5 µg/mL (≈ 2.57 to 12.8 µM)
[1]; FeSSIF (fed state simulated intestinal fluid), fessif, read-out: Solubility in FeSSIF
  solubility at 24 h: 5 to 10 µg/mL (≈ 12.8 to 25.7 µM)
[1]; [4]
  solubility at 24 h: 1 to 5 µg/mL (≈ 2.57 to 12.8 µM)
[1]; [5]
  solubility at 24 h: 1 to 5 µg/mL (≈ 2.57 to 12.8 µM)

## Cc1[nH]c(C)c(-c2ccc(-c3cccc(Cl)c3)nc2)c(=O)c1Br [Example 20, 5-Bromo-6′-(3-chlorophenyl)-2,6-dimethyl-3,3′-bipyridin-4(1H)-one]
Plasmodium falciparum
  IC50: < 0.125 µg/mL
[1]; [2]
  solubility at 24 h: ≥ 50 µg/mL
[1]; [3]
  solubility at 24 h: < 1 µg/mL
[1]; [4]
  solubility at 24 h: < 1 µg/mL
[1]; [5]
  solubility at 24 h: < 1 µg/mL

## Cc1[nH]c(C)c(-c2ccc(-c3ccccc3Cl)nc2)c(=O)c1Br [Example 21, 5-Bromo-6′-(2-chlorophenyl)-2,6-dimethyl-3,3′-bipyridin-4(1H)-one]
Plasmodium falciparum
  IC50: < 0.125 µg/mL
[1]; [2]
  solubility at 24 h: ≥ 50 µg/mL
[1]; [3]
  solubility at 24 h: 5 to 10 µg/mL (≈ 12.8 to 25.7 µM)
[1]; [4]
  solubility at 24 h: 1 to 5 µg/mL (≈ 2.57 to 12.8 µM)
[1]; [5]
  solubility at 24 h: 5 to 10 µg/mL (≈ 12.8 to 25.7 µM)

## Cc1[nH]c(C)c(-c2ccc(-c3ccc(F)cc3)nc2)c(=O)c1Br [Example 22, 5-Bromo-6′-(4-fluorophenyl)-2,6-dimethyl-3,3′-bipyridin-4(1H)-one]
Plasmodium falciparum
  IC50: < 0.125 µg/mL
[1]; [2]
  solubility at 24 h: ≥ 50 µg/mL
[1]; [3]
  solubility at 24 h: 1 to 5 µg/mL (≈ 2.68 to 13.4 µM)
[1]; [4]
  solubility at 24 h: 1 to 5 µg/mL (≈ 2.68 to 13.4 µM)
[1]; [5]
  solubility at 24 h: 1 to 5 µg/mL (≈ 2.68 to 13.4 µM)

## Cc1[nH]c(C)c(-c2ccc(-c3ccccc3F)nc2)c(=O)c1Br [Example 23, 5-Bromo-6′-(2-fluorophenyl)-2,6-dimethyl-3,3′-bipyridin-4(1H)-one]
Plasmodium falciparum
  IC50: < 0.125 µg/mL
[1]; [2]
  solubility at 24 h: ≥ 50 µg/mL
[1]; [3]
  solubility at 24 h: 1 to 5 µg/mL (≈ 2.68 to 13.4 µM)
[1]; [4]
  solubility at 24 h: 1 to 5 µg/mL (≈ 2.68 to 13.4 µM)
[1]; [5]
  solubility at 24 h: 5 to 10 µg/mL (≈ 13.4 to 26.8 µM)

## Cc1[nH]c(C)c(-c2ccc(-c3ccc(C(F)(F)F)cc3C(F)(F)F)nc2)c(=O)c1Br [Example 24, 5-Bromo-2,6-dimethyl-6′-{2,4-bis[trifluoromethyl]phenyl}-3,3′-bipyridin-4(1H)-one]
Plasmodium falciparum
  IC50: < 0.125 µg/mL
[1]; [2]
  solubility at 24 h: 5 to 10 µg/mL (≈ 10.2 to 20.4 µM)
[1]; [3]
  solubility at 24 h: < 1 µg/mL
[1]; [4]
  solubility at 24 h: < 1 µg/mL
[1]; [5]
  solubility at 24 h: < 1 µg/mL

## Cc1[nH]c(C)c(-c2ccc(-c3cc(C(F)(F)F)cc(C(F)(F)F)c3)nc2)c(=O)c1Br [Example 25, 5-Bromo-2,6-dimethyl-6′-{3,5-bis[trifluoromethyl]phenyl}-3,3′-bipyridin-4(1H)-one]
Plasmodium falciparum
  IC50: < 0.125 µg/mL
[1]; [2]
  solubility at 24 h: 1 to 5 µg/mL (≈ 2.04 to 10.2 µM)
[1]; [3]
  solubility at 24 h: < 1 µg/mL
[1]; [4]
  solubility at 24 h: < 1 µg/mL
[1]; [5]
  solubility at 24 h: < 1 µg/mL

## CCCCc1ccc(-c2ccc(-c3c(C)[nH]c(C)c(Br)c3=O)cn2)cc1 [Example 26, 5-Bromo-6′-(4-n-butylphenyl)-2,6-dimethyl-3,3′-bipyridin-4(1H)-one]
Plasmodium falciparum
  IC50: < 0.125 µg/mL
[1]; [2]
  solubility at 24 h: 10 to 50 µg/mL (≈ 24.3 to 122 µM)
[1]; [3]
  solubility at 24 h: 10 to 50 µg/mL (≈ 24.3 to 122 µM)
[1]; [4]
  solubility at 24 h: < 1 µg/mL
[1]; [5]
  solubility at 24 h: < 1 µg/mL

From patent US7579353B2, “Pyridinone derivatives against malaria” (Glaxo Group Limited, priority 2005, dated 2009)
